Laboratory results: patent publication US20220125772A1, “A2A ANTAGONISTS AS COGNITION AND MOTOR FUNCTION ENHANCERS” (Biotie Therapies, Inc., priority 2010, published 2022)

Legend:
Type in all cases: in vivo, human
[1] = system: Parkinson's disease (PD) patients; assay: Go/No-Go (GNG) Test in Parkinson's disease patients, double-blind crossover study; conditions: for GNG reaction times: vs placebo plus levodopa
Source text: (§1) Continuous performance testing, in various forms, has become a standard clinical procedure. Generally speaking, continuous performance testing evaluates a subject's visual attention by displaying a series of visual stimuli, to which the subject is instructed to respond. In a typical case, often referred to as a “Go—No Go” test, the stimuli are of two types (the “Go” and “No Go” stimuli); the subject is instructed to respond only to the “Go” stimulus, and not to respond or “pass” when presented with the “No Go” stimulus. Data collected for each stimulus presented consists of the type of the stimulus; whether or not the subjects responded; and, if so, how long they took to respond. The continuous performance test has been in use since the 1950s.
(§2) Parkinson's disease (PD) patients participated in a double-blind, crossover study to assess the effect of co-administration of an A2a antagonist with a dopamine precursor on cognition and motor function. The A2a antagonist was 4-hydroxy-4-methyl-piperidine-1-carboxylic acid-(4-methoxy-7-morpholin-4-yl-benzothiazol-2-yl)-amide and the dopamine precursor was levodopa.
(§3) The patients were randomly allocated to 1 week of 4-hydroxy-4-methyl-piperidine-1-carboxylic acid-(4-methoxy-7-morpholin-4-yl-benzothiazol-2-yl)-amide and levodopa, 1 week washout (levodopa only), then 1 week placebo plus levodopa or the reverse order. Optimal levodopa doses were established for each patient according to normal clinical practice. Active drug was administered at 60 mg bid (N=14) or 20 mg bid (N=12) of 4-hydroxy-4-methyl-piperidine-1-carboxylic acid-(4-methoxy-7-morpholin-4-yl-benzothiazol-2-yl)-amide. At the end of each treatment week, participants completed motor assessments, a Continuous Performance Test (CPT), a Go/No-Go (GNG) Test, and a 2-Back Test after overnight withdrawal of levodopa and again after intravenous (IV) infusion of a suboptimal level of levodopa.
Subjects monitored a visual display while single uppercase letters were presented one at a time interspersed with the number “5”. Participants were instructed to push a target response button at the occurrence of every letter (i.e., a “Go” response) but to withhold a response for the number 5 (i.e., a “No-Go” response). Target frequency was manipulated in a blocked fashion, with two levels of target frequency (83% letters: 17% “5”s; 50% letters: 50% “5”s).

[2] = system: Parkinson's disease (PD) patients; assay: Continuous Performance Test (CPT) in Parkinson's disease patients, double-blind crossover study; conditions: either dose (60 mg bid, 20 mg bid) with levodopa; all p-values>0.05
Source text: as §1, §2
The patients were randomly allocated to 1 week of 4-hydroxy-4-methyl-piperidine-1-carboxylic acid-(4-methoxy-7-morpholin-4-yl-benzothiazol-2-yl)-amide and levodopa, 1 week washout (levodopa only), then 1 week placebo plus levodopa or the reverse order. […]

[3] = system: Parkinson's disease (PD) patients; assay: Motor assessments (tapping speed, UPDRS item) in Parkinson's disease patients, double-blind crossover study
Source text: as §2, §3

[4] = system: Parkinson's disease (PD) patients; assay: 2-Back Test in Parkinson's disease patients, double-blind crossover study; conditions: either dose (60 mg bid, 20 mg bid) with levodopa; all p-values>0.05
Source text: as §2, §3

[5] = system: Parkinson's disease (PD) patients; assay: Participant-reported sleepiness in Parkinson's disease patients, double-blind crossover study; conditions: compared to placebo
Source text: as §2, §3

[6] = FIG. 1 legend, A2a antagonist compared with placebo, dose not stated

In the case of `COc1ccc(N2CCOCC2)c2sc(NC(=O)N3CCC(C)(O)CC3)nc12` [4-hydroxy-4-methyl-piperidine-1-carboxylic acid-(4-methoxy-7-morpholin-4-yl-benzothiazol-2-yl)-amide], the GNG reaction times ([1]; 20 mg bid for 1 week with levodopa, p=0.05, N=12) is reported as “faster GNG reaction times”, the GNG accuracy ([1]; 60 mg bid and 20 mg bid with levodopa, ps>0.25) is reported as “without reduced accuracy” and the GNG reaction times ([1]; 60 mg bid for 1 week with levodopa, p<0.01, N=14) is reported as “faster GNG reaction times”. For the same compound, the “Go/No-Go task mistakes (FIG. 1)” value [1, 6] was “fewer mistakes”, the “Go/No-Go task reaction time (FIG. 1)” value [1, 6] was “reaction times are faster” and the “effect on the CPT test” value [2] was “no significant effects”. For the same compound, the “rapidly alternating hand movements item from the UPDRS” value ([3]; 60 mg bid and levodopa, p=0.03) was “significant”, the tapping speed ([3]; 60 mg bid, before and after levodopa, p: 0.05) was “significant motor benefit” and the “effect on the 2-Back test” value [4] was “no significant effects”. For the same compound, the reported sleepiness ([5]; 20 mg bid, p>0.05) was “no significant difference” and the reported sleepiness ([5]; 60 mg bid, before and after levodopa, p<0.05) was “less sleepiness”.
